Measured values as given in patent US20250313635A1, “ANTI-INTEGRIN ANTIBODIES AND USES THEREOF” (Merck Sharp & Dohme LLC, priority 2022, published 2025).

What was measured:
[1] = system: bleomycin-induced lung fibrosis mouse model; experiment: Mouse bleomycin lung fibrosis model; assay type: in vivo; settings: MK-0429 200 mpk osmotic minipump, Nintedanib 60 mpk po qd
Method: Mouse bleomycin lungfibrosis models. Adult male C57BL/6 mice (Taconic, Rensselaer, NY) were housed in a temperature and humidity-controlled facility with a 12-hour light: 12-hour dark cycle. Animals had ad libitum access to food (Purina Rodent Chow 5053, LabDiet, St. Louis, MO) and water. All procedures utilizing experimental animals were conducted in accordance with the Guide for the Care and Use of Laboratory Animals, and experimental procedures were reviewed and approved by the Institutional Animal Care and Use Committee at MRL, Kenilworth, NJ.
For osmotic minipump implantation, trifluoroacetate (TFA) salt of MK-0429 was formulated in 50% dimethylsulfoxide (DMSO)/50% H2O at a concentration of 416 mg/mL. MK-0429 or vehicle solution were filled in minipumps (Alzet, #1007D, flow rate 0.5 μL/hour). Minipumps were placed in mice subcutaneously in a pocket on the back between the shoulder blades. A small incision was made and a subcutaneous pocket formed by blunt dissection. A sterile minipump was inserted into the subcutaneous pocket. The incision was closed with staples or non-absorbable suture or absorbable (subcuticular) suture. The minipumps were used for continuous drug delivery for two weeks.
(§1) Mice at 12˜13 weeks of age were randomized to five groups: saline, bleomycin instillation with vehicle (osmotic minipump), bleomycin instillation with MK-0429 treatment, bleomycin instillation with vehicle oral treatment, and bleomycin instillation with Nintedanib treatment. All mice were anaesthetized with isoflurane. Bleomycin was dosed by intratracheal (i.t) instillation in a volume of 50 μL, at a dose of 1 unit/kg body weight. After instillation, mice were kept in a heads-up position for 2-5 minutes before putting into cages. MK-0429 (200 mg/kg) was administered by Osmotic pump from day 5 to day 14 and Nintedanib (60 mg/kg) was administered, p.o., q.d., for 14 days. Vehicle was dosed orally at 10 am daily from the day 5 to the end of the studies and dosing volume was 10 mL/kg. For plasma PK analysis, an aliquot of 50 μL plasma was spiked into a 96-well plate, and 200 μL of acetonitrile containing internal standard were added for protein precipitation. The mixture was vortexed, centrifuged at 4000 rpm for 20 minutes. Then 50 μL of supernatant fraction was mixed with 200 μL H2O and the final solution were injected for LC-MS/MS analysis. The methods for quantitative analysis were developed on UPLC (Waters) chromatographic system equipped with an API4000 QTrap™ mass spectrometer (Applied Biosystems, Concord, Ontario, Canada). Analyst 1.5 software packages (Applied Biosystems) were used to control the LC-MS/MS system and data acquisition and processing.
Histopathology analysis. Upon completion of the study, animals were euthanized and tissues were collected for histological assessment. Lung tissues were perfused with 10% formalin, fixed for 24 hours, and then paraffin embedded. Tissue sections were stained with hematoxylin & eosin (H&E) and Masson's trichrome, subsequently evaluated under light microscope. The severity of histopathologic changes and fibrosis in the lung were graded as described previously by pathologists (Ashcroft et al., J. Clin. Pathol. 41, 467-470 (1988); Hubner et al., Biotechniques 44(507-511), 514-607 (2008)). Following deparaffinization and rehydration, each lung tissue section was processed to identify αSMA deposition by immunohistochemistry. The primary antibodies used were αSMA antibody from Sigma. The Aperio ScanScope™ XT Slide Scanner (Aperio Technologies) system was used to capture whole slide digital images with a 20×objective. Digital images were managed using Aperio Spectrum™. The positive stains were identified and quantified using a macro created from a color deconvolution algorithm (Aperio Technologies). Statistical analysis was performed by using One-way ANOVA followed by Tukey's test.

[2] = Plasma PK analysis in bleomycin model (LC-MS/MS); assay type: in vivo; settings: mouse, two hours after the last dose at end of study; MK-0429 200 mpk osmotic minipump, Nintedanib 60 mpk po qd
Method: as §1, with “Analyst 1.5 software packages (Applied Biosystems) were used to control the LC-MS/MS system and data acquisition and processing.” left out

[3] = system: Normal human lung fibroblasts; experiment: αSMA imaging, TGFβ-induced αSMA expression; assay type: cell-based; settings: TGFβ 5 ng/mL, pre-treated 30 minutes, MK-0429 (10 µM) or SB-525334 (10 μM), 48 hours
Method: αSMA imaging. Primary cells (passage 3-5) were grown on Cell carrier Ultra, collagen Type 1 coated 96-well plates (Perkin Elmer, #6055700) at a density of 25,000 cells/well. Once the cells adhere, they were starved in serum free media for 24 hours followed by addition of treatments, i.e., 5 ng/mL TGFβ (Biolegend #580702)±inhibitors. Cells were pre-treated with inhibitors for 30 minutes prior to the addition of TGFβ stimulation. 48 hours post treatment, the cells were fixed in 4% methanol free paraformaldehyde (ThermoFisher Scientific #28908) for 20 minutes at room temperature and incubated with anti-alpha smooth muscle Actin antibody (Abcam #ab7817) at 1:4000 overnight at 4° C. Following primary antibody incubation, cells were incubated with Goat anti-mouse secondary antibody (ThermoFisher Scientific #A32723) at 1:500 and Hoechst (ThermoFisher Scientific #62249) at 1:1000 for one hour at RT. The fixed and stained cells were images for immunofluorescence on Perkin Elmer's Opera Phenix high content Imager.

[4] = 14 days treatment, vs BLM-vehicle

SMILES | body weight difference vs bleomycin group [1] | BALF TIMP-1 content [1, 4] | bleomycin-induced αSMA expression (IHC) [1, 4] | inflammation in the lung [1, 4] | modified Ashcroft score [1, 4] | mean plasma concentration [2] | αSMA intensity and the percentage of stimulated cells following TGFβ treatment [3]
COC(=O)c1ccc2c(c1)NC(=O)/C2=C(\Nc1ccc(N(C)C(=O)CN2CCN(C)CC2)cc1)c1ccccc1 [Nintedanib, reference compound] | no significant body weight difference | significantly decreased | significantly decreased | decreased inflammation | significantly improved | 656+229 ng/mL | –
Cc1cccc(-c2[nH]c(C(C)(C)C)nc2-c2ccc3nccnc3c2)n1 [SB-525334, reference compound] | – | – | – | – | – | – | significantly reduced
